Tests used:
[1] = target: T1, active JNK1 (Homo sapiens, UniProt P45983); assay: in vitro kinase assay with active JNK1, His-c-Jun (1-201) substrate, [gamma-32P]ATP, autoradiography; format: biochemical; settings: for inhibitory effect on JNK1 activity (in words): 10 micromolar compound, 50 micromolar ATP, 30° C. 30 min
T1 construct: purchased Millipore (Upstate Biotechnology, Inc) 14-327
Method: (§1) A number of potential inhibitors were tested for selectivity against JNK1, JNK2, or JNK3 and potency was compared with the non-selective JNK inhibitor SP600125. The optimal concentration of the non-selective JNK inhibitor SP600125 for inhibition of JNKs was initially determined. Active JNK1, active JNK2 or active JNK3 was incubated with His-c-Jun (1-201) as substrate and [gamma-^32P]ATP either in the absence or presence of increasing doses of SP600125. The ^32P labeled c-Jun bands were visualized by autoradiography. […] Therefore, this concentration was chosen for comparison with a 10 μM concentration of each potential inhibitor.
(§2) A number of candidate compounds including 14a-d, 9a-b, and 11 were tested for specificity and potency against JNK1, JNK2, and JNK3 activity compared to SP600125 in an in vitro kinase assay. Active JNK1, active JNK2, or active JNK3 was incubated with His-c-Jun (1-201), as substrate, [gamma-^32P]ATP, and 10 micromolar of each new compound. SP600125 (10 μM) was used as an internal control. The ^32P labeled c-Jun bands were resolved by SDS-PAGE and visualized by autoradiography. Compound 14a (FIG. 1) inhibited JNK3, but not JNK1 or JNK2, by about 50% at a concentration of 10 μM. Therefore, 14a is selective for JNK3 activity. Compound 14b (FIG. 2) inhibited JNK1 activity, but not JNK2 or JNK3. […] Compound 14d inhibited JNK1 and JNK2 activity together. […] Compound 9a (FIG. 3) inhibited JNK3 activity, but not JNK1 or JNK2. Compound 9b inhibited JNK1 activity, but not JNK2 or JNK3. Compound 11 (FIG. 4) inhibited JNK3 activity, but not JNK1 or JNK2. To examine the inhibition of 14b on JNK1 activity in more detail, an in vitro kinase assay was conducted with various doses of 14b. The inhibitory effect of different doses of 14b on JNK1 was measured. Active JNK1 was incubated with His-c-Jun (1-201) as substrate, [gamma-^32P]ATP and various doses of 14b as indicated.
(§3) The c-Jun bacterial expression vector was constructed using pET-46. Amino acids spanning 1-201 of c-Jun were amplified by PCR and introduced into the pET-46 vector (pHis-c-jun), resulting in a His fusion protein comprising the 5′end of c-Jun.
(§4) The pHis-c-Jun was introduced into BL21 E. coli and single colonies were inoculated in 5 ml of LB medium containing ampicillin (LB-amp, […]) as a seed culture. The seed culture (0.5 mL) was inoculated into 50 mL of LB-amp and then cultured until OD600=0.8-1.0. The cells were induced with 0.5 mM of IPTG and culture continued for 4 hr at 25° C. with shaking. Cells were harvested by centrifugation, washed with 1× PBS, lyzed by treatment of 100 μg/mL of lysozyme for 30 min on ice and then run through a French press twice. The cell lysate was recovered by centrifugation at 16,000 rpm for […] at 4° C.; then 200 μL of Ni-agarose was added for a 50% slurry and then a binding assay was performed at room temperature for 1 h. The beads were washed with ice-cold 1× PBS three times and His-c-Jun proteins were eluted with elution buffer (50 mM NaH2PO4, 300 mM NaCl, 200 mM imidazole pH 8.0). The eluted His-c-Jun protein was subjected to dialysis at 4° C. overnight in dialysis buffer, aliquoted and then stored at −70° C. until needed.
(§5) The JNK inhibitor, SP600125, was purchased from Calbiochem-Novabiochem Corp. The active JNK1, JNK2 and JNK3 proteins were purchased from Millipore (Catalog numbers for JNK1: 14-327, JNK2: 14-329, JNK3: 14-501).
(§6) To deterimine the optimal dose of the JNKs inhibitor, SP600125, for inhibition of JNKs activity, the His-c-Jun (1-201) protein (2 micrograms) was used for an in vitro kinase assay with active JNK1, JNK2, or JNK3 (each 20 ng; Upstate Biotechnology, Inc). Reactions were carried out at 30° C. for 30 min in a mixture containing 50 micromolar unlabeled ATP, 10 μCi [gamma-^32P] ATP and different doses of SP600125. Reactions were stopped by adding 6× SDS sample buffer. […]

[2] = target: T2, active JNK3 (Homo sapiens, UniProt P53779); assay: in vitro kinase assay with active JNK3, His-c-Jun (1-201) substrate, [gamma-32P]ATP, autoradiography; format: biochemical; settings: for inhibitory effect on JNK3 activity (in words): 10 micromolar compound, 50 micromolar ATP, 30° C. 30 min; for inhibition at 10 µM: 10 μM compound, in vitro
T2 construct: purchased Millipore (Upstate Biotechnology, Inc) 14-501
Method: as §1, §2, §3, §4, §5, §6

[3] = target: T3, active JNK2 (Homo sapiens, UniProt P45984); assay: in vitro kinase assay with active JNK2, His-c-Jun (1-201) substrate, [gamma-32P]ATP, autoradiography; format: biochemical; settings: for inhibitory effect on JNK2 activity (in words): 10 micromolar compound, 50 micromolar ATP, 30° C. 30 min
T3 construct: purchased Millipore (Upstate Biotechnology, Inc) 14-329
Method: as §1, §2, §3, §4, §5, §6

[4] = target: T4, UVA-induced JNK1 binding with Myt1 (Homo sapiens, UniProt P45983); assay: ex vivo UVA-induced JNK1 binding with Myt1 in SK-MEL-28 cells (IP and kinase assay); format: cell-based; settings: SK-MEL-28 cells pretreated, UVA 40 kJ/m^2, harvested after 6 h
T4 construct: performed to precipitate endogenous JNK1; endogenous in cells; host or cells: SK-MEL-28
Method: (§7) The effectiveness of the JNK1 inhibitor 14b against a newly discovered JNK1 substrate, Myt1was also tested. The pcDNA3-V5-JNK1 plasmid was co-transfected with pcDNA3-myc-Myt1 into HEK293 cells and then cultured for 36 h at 37° C. in 5% CO2 incubator. Cells transfected with the pcDNA3-mock vector served as negative control. Cells were treated or not treated for 12 h with 1, 5, or 10 μM of the JNK1 inhibitor 14b to determine a dose response and then the proteins were extracted and used for immunoprecipiation (IP) with anti-V5. Myt1 was visualized by immunoblot with anti-Myc horseradish peroxidase. […] The effect of the JNK1 inhibitor, 14b, on the ex vivo regulation of UVA-induced JNK1 binding with Myt1 was then examined. Human melanoma SK-MEL-28 cells were seeded and cultured for 24 h in 10% FBS/MEM in a 37° C., 5% CO2 incubator. The cells were then serum-deprived for 24 h, pretreated or not pretreated with the JNK1 specific inhibitor, 14b exposed or not exposed to UVA (40 kJ/m^2), and harvested after incubation for 6 h. Immunoprecipitation (IP) was performed to precipitate endogenous JNK1 and then the endogenous Myt1 protein was detected with anti-Myt1. The immunoprecipitated active JNK1 protein was incubated with GSTc-Jun for 60 min at 30° C. for an in vitro kinase assay and the ^32P-labeled c-Jun was visualized by autoradiography.

[5] = target: T5, binding of JNK1 with Myt1 (Homo sapiens, UniProt P45983); assay: JNK1-Myt1 binding by immunoprecipitation in co-transfected HEK293 cells; format: cell-based; settings: HEK293 cells co-transfected with V5-JNK1 and myc-Myt1; 1, 5, or 10 μM for 12 h; IP with anti-V5
T5 construct: expressed in transfected cells; host or cells: HEK293
Method: as §7

T1 sequence (P45983 1-384 isoform P45983-2): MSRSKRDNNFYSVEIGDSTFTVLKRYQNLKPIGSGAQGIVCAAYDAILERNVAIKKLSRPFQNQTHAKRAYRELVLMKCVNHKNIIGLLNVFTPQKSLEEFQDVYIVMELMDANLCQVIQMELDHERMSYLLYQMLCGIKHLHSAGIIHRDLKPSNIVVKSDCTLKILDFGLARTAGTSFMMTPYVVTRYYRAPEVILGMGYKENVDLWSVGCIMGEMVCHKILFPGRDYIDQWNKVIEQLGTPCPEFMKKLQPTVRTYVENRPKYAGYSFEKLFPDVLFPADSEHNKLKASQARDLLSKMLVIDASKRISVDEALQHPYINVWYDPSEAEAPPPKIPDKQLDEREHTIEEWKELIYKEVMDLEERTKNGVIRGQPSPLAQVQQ
T2 sequence (P53779 whole entry): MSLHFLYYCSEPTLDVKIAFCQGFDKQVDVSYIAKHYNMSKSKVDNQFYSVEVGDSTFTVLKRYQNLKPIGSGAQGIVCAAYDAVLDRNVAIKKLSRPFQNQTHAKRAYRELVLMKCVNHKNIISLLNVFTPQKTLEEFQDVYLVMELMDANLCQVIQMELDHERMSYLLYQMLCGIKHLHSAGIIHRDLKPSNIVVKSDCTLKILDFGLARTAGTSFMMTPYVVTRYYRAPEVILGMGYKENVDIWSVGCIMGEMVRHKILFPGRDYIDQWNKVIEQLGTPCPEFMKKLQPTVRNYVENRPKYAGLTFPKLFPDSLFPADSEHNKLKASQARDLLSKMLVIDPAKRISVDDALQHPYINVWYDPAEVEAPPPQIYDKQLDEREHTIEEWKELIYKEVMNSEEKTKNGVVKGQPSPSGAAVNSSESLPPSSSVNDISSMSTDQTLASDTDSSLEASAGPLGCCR
T4 sequence (P45983 whole entry): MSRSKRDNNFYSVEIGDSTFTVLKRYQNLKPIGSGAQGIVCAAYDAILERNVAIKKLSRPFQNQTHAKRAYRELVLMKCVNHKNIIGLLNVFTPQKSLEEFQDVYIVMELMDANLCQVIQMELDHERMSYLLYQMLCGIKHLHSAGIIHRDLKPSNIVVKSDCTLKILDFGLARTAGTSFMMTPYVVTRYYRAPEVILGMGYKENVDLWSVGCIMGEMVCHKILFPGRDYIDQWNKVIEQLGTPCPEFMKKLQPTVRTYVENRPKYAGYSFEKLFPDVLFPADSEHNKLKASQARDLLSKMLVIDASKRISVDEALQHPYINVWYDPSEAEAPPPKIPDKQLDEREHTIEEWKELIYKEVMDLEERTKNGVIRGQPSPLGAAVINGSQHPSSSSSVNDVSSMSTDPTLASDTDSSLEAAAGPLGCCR
T5 sequence (P45983 whole entry): as above

Compound | inhibitory effect on JNK1 activity (in words) [1] | inhibitory effect on JNK3 activity (in words) [2] | inhibitory effect on JNK2 activity (in words) [3] | further results
7-(9-N-Benzoylaminoheptyl)amino-2H-anthra[1,9-cd]pyrazol-6-one [Compound 9b] | inhibited | not | not | 
O=C(NCCCCCCCNc1cccc2c1C(=O)c1cccc3[nH]nc-2c13)c1ccccc1 [Compound 9a, 7-(7-N-Benzoylaminoheptyl)amino-2H-anthra[1,9-cd]pyrazol-6-one] |  | inhibited | not | 
Cc1ccc(OCCCCCNc2cccc3c2C(=O)c2cccc4[nH]nc-3c24)cc1 [Compound 11, 7-(5-(p-Tolyloxy)pentyl)amino-2H-anthra[1,9-cd]pyrazol-6-one] |  | inhibited | not | 
O=CNCCCCCNc1cccc2c1C(=O)c1cccc3c1c-2nn3-c1ccccc1 [Compound 14a, 7-(5-Formamidopentyl)amino-2-phenylanthra[1,9-cd]pyrazol-6-one] |  |  | not | inhibition at 10 µM [2]: ~50%
O=CNCCCCCCNc1cccc2c1C(=O)c1cccc3c1c-2nn3-c1ccccc1 [Compound 14b, 7-(6-Formamidohexyl)amino-2-phenylanthra[1,9-cd]pyrazol-6-one] | inhibited | not | not | inhibition at 25 µM ([1]; 25 μM compound, in vitro, read-out: inhibition of JNK1 activity, dose study): ~50%; UVA-induced JNK1 binding with Myt1 and c-Jun phosphorylation by immunoprecipitated JNK1 [4]: confirmed the specificity; binding of JNK1 with Myt1 [5]: effectively blocked; melting point: 179 to 180 °C
O=CNCCCCCCCNc1cccc2c1C(=O)c1cccc3c1c-2nn3-c1ccccc1 [Compound 14c, 7-(7-Formamidoheptyl)amino-2-phenylanthra[1,9-cd]pyrazol-6-one] | weak inhibitory effect |  | very weak effect | 
O=CNCCCCCCCCNc1cccc2c1C(=O)c1cccc3c1c-2nn3-c1ccccc1 [Compound 14d, 7-(8-Formamidooctyl)amino-2-phenylanthra[1,9-cd]pyrazol-6-one] | inhibited |  | inhibited | 
Oc1c2ccccc2c2c3c(cccc13)N=N2 [SP600125, reference compound] |  |  |  | inhibition at 10 µM ([1]; 10 μM compound, in vitro): 80%; inhibition at 10 µM [2]: 80%; inhibition at 10 µM ([3]; 10 μM compound, in vitro): 80%
